According to patent US9994509B2, “Inhibitors of viral replication, their process of preparation and their therapeutical uses” (HIVIH, priority 2013, dated 2018):

Tested on: NL4-3 strain of HIV-1
Experiment: HIV-1 replication assay: cyto-protection of MT4 cells infected with NL4-3 virus, CellTiter-Glo viability readout
Assay type: cell-based
Conditions: Human immunodeficiency virus 1, NL43, 120 h; concentration leading to 50% of cyto-protection; MT4 cells infected with NL4-3 virus; 5 days incubation; CellTiter-Glo; read-out: EC50
Procedure: The antiviral activity, particularly against HIV, of compounds according to the invention is evaluated by the protocol described below.
Preparation of Virus stock of the NL4-3 strain of HIV-1 (Adachi et al, J Virol, 1986, 59(2):284-91).
The virus was prepared as described in Lopez et al (Lopez et al, Proc Natl Acad Sci USA., 2006, 103(40):14947-52, by transfecting 2×10^6 293 T cells (CRL-1573, ATCC) with following modifications: 6 μg of NL4-3 proviral DNA molecular clone were mixed with X-tremeGENE 9 DNA transfection reagent from Roche, and used according to manufacturer's instructions. Twenty four hours later, cells were washed and fresh medium added. Forty eight hours after transfection, cell supernatants were harvested, filtered through 0.45-μm-pore-size filters, quantified for HIV-1 p24 antigen by using an Innotest HIV antigen mAb assay (Ingen) according to manufacturer's instructions, and used in infection experiments.
Serial dilutions of compounds to be tested were prepared in complete RPMI medium from 10 mM DMSO stock solutions, and distributed in a volume of 20 μl in 96 well tissue-culture treated plates (Costar 3917), in order to get 0.5% DMSO final concentration in each well, after the addition of infected cells. Control wells contained also 0.5% DMSO final concentration but no compound.
MT4 cells (from the NIH AIDS Research and Reference Reagent Program) in RPMI complete medium were counted (10×10^6 cells per well in Falcon 353047 Multiwell™ 24 well) and infected for 2 hours at 37°, at a multiplicity of infection (moi) of 0.0001-0.00001. Cells were then centrifuged for 3 min at 3000 rpm, and washed two times in 1 ml PBS to remove viruses that have not entered the cells. Infected cells were resuspended in complete RPMI at 1.25×10^6 cells/ml, and 80 μl of infected cells were distributed in each well containing compounds to be tested or control wells. The plates were then incubated at 37° C. for 5 days.
Assay used to measure the inhibition of HIV replication by the compounds (according to Gregg S. Jones et al., Antimicrobial Agents and Chemotherapy, 2009, 53 (3): 1194-1203).
After 5 days of incubation, microplates were equilibrated to room temperature for 30 min and then 50 μl of CellTiter-Glo reagent (Promega Biosciences, Inc., Madison Wis., USA) were added to each well. Cell lysis was carried out at room temperature during 10 min and luminescence was read on a Fluoroskan (Thermo Scientific).
The EC50, or effective concentration 50, is the concentration of compound leading to 50% of cyto-protection in a CellTiter-Glo® viability assay based on MT4 cells infected with NL4-3 virus (table 1).

Row | SMILES | EC50
1 | CCCOC(C(=O)O)c1c(C)ccc(C2CC2)c1-c1ccc2c(c1)CCCO2 (centres unmarked) [Example 28, (2-chroman-6-yl-3-cyclopropyl-6-methyl-phenyl)-propoxy-acetic acid] | 500 nM
2 | Cc1ccc(C2CC2)c(-c2ccc3c(c2)CCCO3)c1C(OCC1CC1)C(=O)O (centres unmarked) [Example 29, (2-chroman-6-yl-3-cyclopropyl-6-methyl-phenyl)-cyclopropyl methoxy-acetic acid] | 500 nM
3 | Cc1ccc(C2CC2)c(-c2ccc3c(c2)CCCO3)c1C(OCC(F)(F)F)C(=O)O (centres unmarked) [Example 30, (2-chroman-6-yl-3-cyclopropyl-6-methyl-phenyl)-(2,2,2-trifluoro-ethoxy)-acetic acid] | 860 nM
4 | CCCc1ccc(C)c(C(OC(C)C)C(=O)O)c1-c1ccc2c(c1)CCCO2 (centres unmarked) [Example 31] | 1000 nM
5 | Cc1ccc(C2CC2)c(-c2ccc3c(c2C)CCCO3)c1C(OC1CC1)C(=O)O (centres unmarked) [Example 32, cyclopropoxy-[3-cyclopropyl-6-methyl-2-(5-methyl-chroman-6-yl)-phenyl]-acetic acid] | 32 nM
6 | Cc1ccc(C2CC2)c(-c2ccc3c(c2)CCCO3)c1C(OC1CCC1)C(=O)O (centres unmarked) [Example 33, (2-chroman-6-yl-3-cyclopropyl-6-methyl-phenyl)-cyclobutoxy-acetic acid] | 450 nM
7 | Cc1ccc(C2CC2)c(-c2ccc3c(c2)CCCO3)c1C(OCC(F)F)C(=O)O (centres unmarked) [Example 34, (2-chroman-6-yl-3-cyclopropyl-6-methyl-phenyl)-(2,2-difluoro-ethoxy)-acetic acid] | 440 nM
8 | Cc1ccc(C2CC2)c(-c2ccc3c(c2)CCCO3)c1C(OCCF)C(=O)O (centres unmarked) [Example 35, (2-chroman-6-yl-3-cyclopropyl-6-methyl-phenyl)-(2-fluoro-ethoxy)-acetic acid] | 830 nM
9 | Cc1ccc(C2CC2)c(-c2ccc3c(c2)CCCO3)c1C(OC(C)C)C(=O)O (centres unmarked) [Example 36, (2-chroman-6-yl-3-cyclopropyl-6-methyl-phenyl)-isopropoxy-acetic acid] | 100 nM
10 | Cc1ccc(C2CC2)c(-c2cc(F)c3c(c2C)CCCO3)c1C(OC1CC1)C(=O)O (centres unmarked) [Example 37, cyclopropoxy-[3-cyclopropyl-2-(8-fluoro-5-methyl-chroman-6-yl)-6-methyl-phenyl]-acetic acid] | 24 nM
11 | Cc1ccc(C2CC2)c(-c2ccc3c(c2)CCCO3)c1C(OC1(C)CC1)C(=O)O (centres unmarked) [Example 39, (2-chroman-6-yl-3-cyclopropyl-6-methyl-phenyl)-(1-methyl-cyclopropoxy)-acetic acid] | 24 nM
12 | CC(C)(C)OC(C(=O)O)c1c(-c2ccc3c(c2)CCCO3)c(C2CC2)cc2ncccc12 (centres unmarked) [Example 42, tert-butoxy-(6-chroman-6-yl-7-cyclopropyl-quinolin-5-yl)-acetic acid] | 190 nM
13 | Cc1ccc(C2CCC2)c(-c2ccc3c(c2)CCCO3)c1C(OC(C)(C)C)C(=O)O (centres unmarked) [Example 43, tert-butoxy-(2-chroman-6-yl-3-cyclobutyl-6-methyl-phenyl)-acetic acid] | 94 nM
14 | Cc1ccc(C2CC2)c(-c2ccc3c(c2)CCCO3)c1C(CC1CC1)C(=O)O (centres unmarked) [Example 45, 3-cyclopropyl-2-[3-cyclopropyl-2-(3,4-dihydro-2H-1-benzopyran-6-yl)-6-methylphenyl]propanoic acid] | 290 nM
15 | Cc1ccc(C2CC2)c(-c2ccc3c(c2)CCCO3)c1C(CC(C)C)C(=O)O (centres unmarked) [Example 46, 2-[3-cyclopropyl-2-(3,4-dihydro-2H-1-benzopyran-6-yl)-6-methylphenyl]-4-methylpentanoic acid] | 650 nM
16 | Cc1ccc(C2CC2)c(-c2ccc3c(c2)CCCO3)c1C(OC1CC1(F)F)C(=O)O (centres unmarked) [Example 47, (2-chroman-6-yl-3-cyclopropyl-6-methyl-phenyl)-(2,2-difluoro-cyclopropoxy)-acetic acid] | 450 nM
17 | COc1cc(C)c(C(OC2CC2)C(=O)O)c(-c2ccc3c(c2)CCCO3)c1C1CC1 (centres unmarked) [Example 56, (2-chroman-6-yl-3-cyclopropyl-4-methoxy-6-methyl-phenyl)-cyclopropoxy-acetic acid] | 500 nM
18 | CCc1cc(C2CC2)c(-c2ccc3c(c2)CCCO3)c(C(OC2CC2)C(=O)O)c1C (centres unmarked) [Example 57, 2-(2-chroman-6-yl-3-cyclopropyl-5-ethyl-6-methyl-phenyl)-2-(cyclopropoxy)acetic acid] | 580 nM
19 | Cc1ccc(C)c(C(OC(C)(C)C)C(=O)O)c1-c1ccc2c(c1)CCCO2 (centres unmarked) [Example 62, 2-(tert-butoxy)-2-[2-(3,4-dihydro-2H-1-benzopyran-6-yl)-3,6-dimethylphenyl]acetic acid, reference compound] | 1600 nM
20 | CC(C)(C)OC(C(=O)O)c1c(C(F)(F)F)ccc(OCc2ccccc2)c1-c1ccc2c(c1)CCCO2 (centres unmarked) [Example 63, 2-[3-(benzyloxy)-2-(3,4-dihydro-2H-1-benzopyran-6-yl)-6-(trifluoromethyl)phenyl]-2-(tert-butoxy)acetic acid, reference compound] | 3200 nM
